*1 amine or outer side, *2 acyl side, *3 side chain or, on linkers, in order; H or OH if unused. Where a SMILES comes first, the peptide text is derived from it. Bridges are numbered along the chain shown (N, C = ends). [ ]: non-standard residue; d: D form. The star is where a group is joined. hPhe(3-Cl-4-CF3) = N[C@@H](CCc1ccc(C(F)(F)F)c(Cl)c1)C(=O)O; NPrPhe(4-CF3) = CCCN[C@@H](Cc1ccc(C(F)(F)F)cc1)C(=O)O; NEtAsp = CCN([C@@H](CC(=O)[*:3])C(=O)[*:2])[*:1]; Morpholine(3S-CO) = O=C(O)[C@@H]1COCCN1; NMeGly(cPent) = CN[C@H](C(=O)O)C1CCCC1; Hyp = O=C(O)[C@@H]1C[C@@H](O)CN1; NMeD = CN[C@@H](CC(=O)O)C(=O)O; NMeL = CN[C@@H](CC(C)C)C(=O)O; Morpholide = C1CN(*)CCO1; NMeA = CN[C@@H](C)C(=O)O; Ac5c = NC1(C(=O)O)CCCC1; Aze = O=C(O)[C@@H]1CCN1; Ac4c = NC1(C(=O)O)CCC1; NEtG = CCNCC(=O)O; Sar = CNCC(=O)O
Experiments:
[1] = target: GDP-bound HRAS wild-type protein (Homo sapiens, UniProt P01112); assay: Binding to HRAS by surface plasmon resonance (SPR), Single Cycle Kinetics; conditions: SPR; for HRAS/KRAS (ratio of KD value with respect to HRAS to KD value with respect to KRAS) / HRAS/KRAS (ratio of KD value for HRAS to KD value for KRAS): GDP-bound HRAS wild-type vs GDP-bound KRAS wild-type
[2] = target: GDP-bound NRAS wild-type protein (Homo sapiens, UniProt P01111); assay: Binding to NRAS by surface plasmon resonance (SPR), Single Cycle Kinetics; conditions: SPR; for NRAS/KRAS (ratio of KD value with respect to NRAS to KD value with respect to KRAS) / NRAS/KRAS (ratio of KD value for NRAS to KD value for KRAS): GDP-bound NRAS wild-type vs GDP-bound KRAS wild-type
GDP-bound NRAS wild-type protein, sequence (P01111 whole entry): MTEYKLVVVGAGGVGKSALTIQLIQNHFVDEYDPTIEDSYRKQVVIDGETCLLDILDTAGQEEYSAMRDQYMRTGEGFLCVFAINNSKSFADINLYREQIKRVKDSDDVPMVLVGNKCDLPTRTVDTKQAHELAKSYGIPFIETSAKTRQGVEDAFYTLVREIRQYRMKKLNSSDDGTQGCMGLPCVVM

GDP-bound HRAS wild-type protein, sequence (P01112 whole entry): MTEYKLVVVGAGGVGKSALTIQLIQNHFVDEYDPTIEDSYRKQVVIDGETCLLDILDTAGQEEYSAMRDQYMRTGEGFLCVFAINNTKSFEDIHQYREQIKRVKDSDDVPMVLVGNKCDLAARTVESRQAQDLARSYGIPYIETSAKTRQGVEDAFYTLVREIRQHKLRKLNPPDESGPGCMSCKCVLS

CCO[C@@H]1C[C@H]2C(=O)NC(C)(C)C(=O)N(C)[C@@H](C3CCCC3)C(=O)N(CC)[C@H](C(=O)N3CCOCC3)CC(=O)N(C)[C@@H](CC(C)C)C(=O)N[C@@H]([C@@H](C)CC)C(=O)N(C)CC(=O)N(C)[C@H]3CCCCCN(C3=O)[C@@H](Cc3ccc(C(F)(F)F)cc3)C(=O)N(C)CC(=O)N[C@@H](CCc3cc(F)c(C(F)(F)F)c(F)c3)C(=O)N2C1 [PP0958]
HRAS/KRAS (ratio of KD value with respect to HRAS to KD value with respect to KRAS) [1]: B (a compound having 3 or more and less than 10 is denoted as B) | NRAS/KRAS (ratio of KD value with respect to NRAS to KD value with respect to KRAS) [2]: B (a compound having 3 or more and less than 10 is denoted as B)

CCCOC[C@H]1C(=O)N[C@@H]([C@@H](C)CC)C(=O)N(C)CC(=O)N(C)[C@H]2C/C=C\CCN(C2=O)[C@@H](Cc2ccc(C(F)(F)F)cc2)C(=O)N(C)CC(=O)N[C@@H](CCc2cc(F)c(C(F)(F)F)c(F)c2)C(=O)N2C[C@H](OCC)C[C@H]2C(=O)NC2(CC(F)(F)C2)C(=O)N(C)[C@@H](C2CCCC2)C(=O)N(C)[C@H](C(=O)N(C)CCC)CC(=O)N1C [PP1744]
HRAS/KRAS (ratio of KD value for HRAS to KD value for KRAS) [1]: A (a compound having 10 or more and less than 20 is denoted as A) | NRAS/KRAS (ratio of KD value for NRAS to KD value for KRAS) [2]: A (a compound having 10 or more and less than 20 is denoted as A)

CCCN1C(=O)CN(C)C(=O)CN(C)C(=O)[C@H]([C@@H](C)CC)NC(=O)[C@H](CC(C)C)N(C)C(=O)C[C@@H](C(=O)N2CCOCC2)N(CC)C(=O)[C@H](C2CCCC2)N(C)C(=O)C2(CCC2)NC(=O)[C@@H]2CCCN2C(=O)[C@H](CCc2ccc(C(F)(F)F)c(Cl)c2)NC(=O)CN(C)C(=O)[C@@H]1Cc1ccc(C(F)(F)F)cc1 [PP1953] ([NMeL]I[Sar][Sar][NPrPhe(4-CF3)][Sar][hPhe(3-Cl-4-CF3)]P[Ac4c][NMeGly(cPent)][NEtAsp]-Morpholide; lactam N-11)
HRAS/KRAS (ratio of KD value for HRAS to KD value for KRAS) [1]: B (a compound having 3 or more and less than 10 is denoted as B) | NRAS/KRAS (ratio of KD value for NRAS to KD value for KRAS) [2]: B (a compound having 3 or more and less than 10 is denoted as B)

CCCN1C(=O)[C@@H]2CCN2C(=O)[C@H](C)N(C)C(=O)[C@H]([C@@H](C)CC)NC(=O)[C@H](CC(C)C)N(C)C(=O)C[C@@H](C(=O)N2CCOCC2)N(C)C(=O)[C@H](C2CCCC2)N(C)C(=O)C2(CCCC2)NC(=O)[C@@H]2COCCN2C(=O)[C@H](CCc2ccc(C(F)(F)F)c(Cl)c2)NC(=O)CN(C)C(=O)[C@@H]1Cc1ccc(C(F)(F)F)cc1 [PP0286] ([NMeL]I[NMeA][Aze][NPrPhe(4-CF3)][Sar][hPhe(3-Cl-4-CF3)][Morpholine(3S-CO)][Ac5c][NMeGly(cPent)][NMeD]-Morpholide; lactam N-11)
HRAS/KRAS (ratio of KD for GDP-bound HRAS wild-type to KD for KRAS) [1]: B (a compound having 3 or more and less than 10 is denoted as B) | NRAS/KRAS (ratio of KD for GDP-bound NRAS wild-type to KD for KRAS) [2]: C (A compound having a KD ratio of 0.1 or more and less than 3 is denoted as C)

CCO[C@@H]1C[C@H]2C(=O)NC3(CCC3)C(=O)N(C)[C@@H](C3CCCC3)C(=O)N(C)[C@H](C(=O)N(C)C)CC(=O)N(C)[C@@H](CC)C(=O)N[C@@H]([C@@H](C)CC)C(=O)N(C)[C@@H](C)C(=O)N(C)[C@H]3C/C=C\CCN(C3=O)[C@@H](Cc3ccc(C(F)(F)F)cc3)C(=O)N(C)CC(=O)N[C@@H](CCc3cc(F)c(C(F)(F)F)c(F)c3)C(=O)N2C1 [PP1054]
HRAS/KRAS (ratio of KD value with respect to HRAS to KD value with respect to KRAS) [1]: B (a compound having 3 or more and less than 10 is denoted as B) | NRAS/KRAS (ratio of KD value with respect to NRAS to KD value with respect to KRAS) [2]: A (a compound having 10 or more and less than 20 is denoted as A)

CCCN1C(=O)CN(C)C(=O)CN(CC)C(=O)[C@H]([C@@H](C)CC)NC(=O)[C@H](CC(C)C)N(C)C(=O)C[C@@H](C(=O)N2CCOCC2)N(C)C(=O)[C@H](C2CCCC2)N(C)C(=O)C2(CCC2)NC(=O)[C@@H]2C[C@@H](OCC)CN2C(=O)[C@H](CCc2ccc(C(F)(F)F)c(Cl)c2)NC(=O)CN(C)C(=O)[C@@H]1Cc1ccc(C(F)(F)F)cc1 [PP0401] ([NMeL]I[NEtG][Sar][NPrPhe(4-CF3)][Sar][hPhe(3-Cl-4-CF3)][Hyp](Et)[Ac4c][NMeGly(cPent)][NMeD]-Morpholide; lactam N-11)
HRAS/KRAS (ratio of KD for GDP-bound HRAS wild-type to KD for KRAS) [1]: B (a compound having 3 or more and less than 10 is denoted as B) | NRAS/KRAS (ratio of KD for GDP-bound NRAS wild-type to KD for KRAS) [2]: B (a compound having 3 or more and less than 10 is denoted as B)

CCC[C@H]1C(=O)N[C@@H]([C@@H](C)CC)C(=O)N(C)CC(=O)N(C)[C@H]2C/C=C\CCN(C2=O)[C@@H](Cc2ccc(C)cc2)C(=O)N(C)CC(=O)N[C@@H](CCc2ccc(C(F)(F)F)c(Cl)c2)C(=O)N2C[C@H](OCC)C[C@H]2C(=O)NC2(CCC2)C(=O)N(C)[C@@H](C2CCCC2)C(=O)N(C)[C@H](C(=O)N(C)CC)CC(=O)N1C [PP1895]
HRAS/KRAS (ratio of KD value for HRAS to KD value for KRAS) [1]: B (a compound having 3 or more and less than 10 is denoted as B) | NRAS/KRAS (ratio of KD value for NRAS to KD value for KRAS) [2]: A (a compound having 10 or more and less than 20 is denoted as A)
